Measured values reported in the NIST ThermoML archive (doi:10.1021/je101012n).

Assay: mn = molality of the nth substance listed, in mol/kg
Settings: 101 kPa, Liquid, Alternating current cell with electrodes

O=S(=O)([O-])O.[K+] [hydrogen potassium sulfate] + O
electrical conductivity [S/m]
Settings | 278.15 K | 283.15 K | 298.15 K | 308.15 K | 318.15 K | 343.15 K | 363.15 K
m1 = 0.000161 | 0.006027 | 0.006684 | 0.008772 | 0.01017 | 0.01154 | 0.01478 | 0.01675
m1 = 0.000981 | 0.03588 | 0.03981 | 0.05156 | 0.05895 | 0.06564 | 0.07958 | 0.0854
m1 = 0.01608 | 0.4635 | 0.5067 | 0.623 | 0.6784 | 0.7238 | 0.7958 | 0.8195
m1 = 0.09815 | 2.141 | 2.318 | 2.791 | 2.998 | 3.157 | 3.469 | 3.665
m1 = 0.2291 | 4.379 | 4.728 | 5.71 | 6.137 | 6.456 | 7.159 | 7.699

Cl [hydrogen chloride] + O
electrical conductivity [S/m]
Settings | 278.15 K | 283.15 K | 298.15 K | 308.15 K | 318.15 K | 343.15 K | 363.15 K
m1 = 0.00011 | 0.003313 | 0.003683 | 0.004665 | 0.00531 | 0.005973 | 0.007487 | 0.008461
m1 = 0.000958 | 0.028 | 0.03088 | 0.03978 | 0.04565 | 0.05121 | 0.06414 | 0.07325
m1 = 0.00937 | 0.2714 | 0.3001 | 0.3869 | 0.4408 | 0.4932 | 0.6227 | 0.7132
m1 = 0.09398 | 2.604 | 2.872 | 3.684 | 4.19 | 4.673 | 5.872 | 6.722
m1 = 0.4603 | 11.98 | 13.14 | 16.69 | 18.97 | 21.09 | 26.23 | 29.87
m1 = 0.85 | 20.2 | 22.06 | 27.9 | 31.53 | 34.95 | 43.45 | 48.24
